From US10941152B2, “Pyrazole compounds as modulators of FSHR and uses thereof” (TOCOPHERX, INC., priority 2014, dated 2021) come the findings set out here.

Assay [1] addresses T1, follicle-stimulating hormone (FSH) receptor (Rattus norvegicus, UniProt P20395).
T1 construct: endogenous in cells; host or cells: rat granulosa cells
T1 sequence (P20395 18-692): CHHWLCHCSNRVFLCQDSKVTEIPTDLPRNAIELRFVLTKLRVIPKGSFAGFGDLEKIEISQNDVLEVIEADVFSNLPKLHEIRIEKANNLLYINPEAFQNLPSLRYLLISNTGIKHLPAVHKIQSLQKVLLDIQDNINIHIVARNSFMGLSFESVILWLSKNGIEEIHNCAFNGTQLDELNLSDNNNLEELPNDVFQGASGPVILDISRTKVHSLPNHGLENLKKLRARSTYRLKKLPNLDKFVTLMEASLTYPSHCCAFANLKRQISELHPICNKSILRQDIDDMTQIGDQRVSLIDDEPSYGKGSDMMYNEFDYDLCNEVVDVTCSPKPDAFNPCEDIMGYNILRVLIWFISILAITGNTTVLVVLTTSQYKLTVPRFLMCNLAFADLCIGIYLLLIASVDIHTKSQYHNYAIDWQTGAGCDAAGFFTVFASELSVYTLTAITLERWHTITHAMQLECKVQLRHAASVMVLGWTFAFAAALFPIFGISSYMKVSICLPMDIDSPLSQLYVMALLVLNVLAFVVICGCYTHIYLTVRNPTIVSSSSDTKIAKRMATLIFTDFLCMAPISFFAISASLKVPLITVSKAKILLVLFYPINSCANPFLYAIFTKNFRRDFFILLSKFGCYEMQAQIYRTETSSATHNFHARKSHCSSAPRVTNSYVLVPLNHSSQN
Nature of the assay: Rat granulosa EC50 FSH (Assay B). The format is cell-based. The procedure: Example 25. Rat granulosa EC50 FSH (Assay B)
The assay was performed pursuant to the teaching of Yanofsky et al. (2006) Allosteric activation of the follicle-stimulating hormone (FSH) receptor by selective, nonpeptide agonists (JBC 281(19): 13226-13233, which is incorporated by reference in the disclosure of the invention).

In a further assay the target is T2, FSHR (Homo sapiens, UniProt P23945).
T2 construct: expressed in transfected cells; host or cells: CHO (Cho-FSHR-LUC-1-1-43)
T2 sequence (P23945 18-695): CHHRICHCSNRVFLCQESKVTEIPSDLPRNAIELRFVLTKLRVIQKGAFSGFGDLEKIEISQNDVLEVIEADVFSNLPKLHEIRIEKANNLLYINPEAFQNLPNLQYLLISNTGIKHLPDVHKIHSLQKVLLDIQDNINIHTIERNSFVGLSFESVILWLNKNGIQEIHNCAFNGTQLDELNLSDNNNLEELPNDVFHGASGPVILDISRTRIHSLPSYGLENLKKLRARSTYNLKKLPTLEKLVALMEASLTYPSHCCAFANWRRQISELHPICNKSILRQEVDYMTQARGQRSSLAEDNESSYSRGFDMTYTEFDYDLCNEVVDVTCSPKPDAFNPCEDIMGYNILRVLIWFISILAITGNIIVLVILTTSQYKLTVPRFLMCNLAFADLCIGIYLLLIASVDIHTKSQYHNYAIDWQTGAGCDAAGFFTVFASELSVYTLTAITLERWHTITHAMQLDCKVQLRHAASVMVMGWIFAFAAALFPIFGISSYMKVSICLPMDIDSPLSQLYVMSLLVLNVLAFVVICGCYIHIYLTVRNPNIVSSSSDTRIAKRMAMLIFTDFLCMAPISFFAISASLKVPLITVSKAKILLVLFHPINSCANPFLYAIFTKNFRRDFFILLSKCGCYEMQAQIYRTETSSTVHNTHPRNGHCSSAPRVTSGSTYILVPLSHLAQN
Nature of the assay: EC50 of cyclic AMP production in CHO FSHR cells + EC20 FSH (Assay A). The format is cell-based. As to conditions: cyclic AMP production in CHO FSHR cells + EC20 FSH (0.265 pM), HTRF. In a few lines:
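CHO cells expressing FSHR, stimulated 1 h at 37° C with compound plus EC20 FSH (0.265 pM final) and 200 μM IBMX. cAMP measured by HTRF (665/620 nm ratio) after 1 h at room temperature; effect expressed relative to maximum response of FSH standard.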

pEC50: −log10 of the molar value.

Turning to `COc1cc(F)cc(-n2nc(C(=O)N(C)C(C)(C)C)c3c2-c2cc(-c4cncc(C(N)=O)c4)c(OC)cc2OC3)c1` [Compound 166], the results for the pEC50 (in assay [1]; on FSHR) were 6.30 to 7.00 and above 8.00, respectively.

Consider `COc1cc(Cl)cc(-n2nc(C(=O)N3CCOCC3(C)C)c3c2-c2cc(-c4ccn(C)n4)c(OC)cc2OC3)c1` [Compound 33, (1-(3-chloro-5-methoxyphenyl)-7-methoxy-8-(1-methyl-1H-pyrazol-3-yl)-1,4-dihydrochromeno[4,3-c]pyrazol-3-yl)(3,3-dimethylmorpholino)methanone], for which the negative-log EC50 (pEC50) (commonly the EC50 on a negative log10 scale, so that one unit is a factor of ten) in assay [1] was 7.00 to 8.00; on FSHR, above 8.00.

Turning to `COc1cc2c(cc1-c1ccn(C)n1)-c1c(c(C(=O)N(C)C(C)(C)C)nn1-c1cc(F)cc(F)c1)CO2` [Compound 48, N-tert-butyl-1-(3,5-difluorophenyl)-7-methoxy-N-methyl-8-(1-methyl-1H-pyrazol-3-yl)-1,4-dihydrochromeno[4,3-c]pyrazole-3-carboxamide], the pEC50 was 6.30 to 7.00 in assay [1] and 7.00 to 8.00 on FSHR.

With `COc1cc2c(cc1-c1ccn(C)n1)-c1c(c(C(=O)N(C)C(C)(C)C#N)nn1-c1cc(F)cc(F)c1)CO2` [Compound 106, N-(2-cyanopropan-2-yl)-1-(3,5-difluorophenyl)-7-methoxy-N-methyl-8-(1-methyl-1H-pyrazol-3-yl)-1,4-dihydrochromeno[4,3-c]pyrazole-3-carboxamide], the pEC50 in assay [1] is below 6.30; at FSHR, 7.00 to 8.00.

`COc1cc2c(cc1-c1ccn(C)n1)-c1c(c(C(=O)N3CCOCC3(C)C)nn1-c1cc(C)cc(Cl)c1)CO2` [Compound 31, (1-(3-chloro-5-methylphenyl)-7-methoxy-8-(1-methyl-1H-pyrazol-3-yl)-1,4-dihydrochromeno[4,3-c]pyrazol-3-yl)(3,3-dimethylmorpholino)methanone]: the pEC50 in assay [1] is 6.30 to 7.00; at FSHR, 7.00 to 8.00.

As to `COc1cc2c(cc1C1CC1C(N)=O)-c1c(c(C(=O)N(C)C(C)(C)C)nn1-c1cc(Cl)cc(Cl)c1)CO2` (stereo not shown) [Compound 199], the pEC50 was 6.30 to 7.00 in assay [1] and above 8.00 on FSHR.

Consider `COc1cc2c(cc1-c1cncc(C(N)=O)c1C)-c1c(c(C(=O)N(C)C(C)(C)C#N)nn1-c1cc(F)cc(F)c1)CO2` [Compound 119, 8-(5-carbamoyl-4-methylpyridin-3-yl)-N-(2-cyanopropan-2-yl)-1-(3,5-difluorophenyl)-7-methoxy-N-methyl-1,4-dihydrochromeno[4,3-c]pyrazole-3-carboxamide], for which the results for the pEC50 (in assay [1]; on FSHR) were 6.30 to 7.00 and above 8.00, respectively.

For `COc1cc2c(cc1-c1cnn(CC(=O)O)c1)-c1c(c(C(=O)N3CCOCC3(C)C)nn1-c1cc(F)cc(Cl)c1)CO2` [Compound 84, 2-(4-(1-(3-chloro-5-fluorophenyl)-3-(3,3-dimethylmorpholine-4-carbonyl)-7-methoxy-1,4-dihydrochromeno[4,3-c]pyrazol-8-yl)-1H-pyrazol-1-yl)acetic acid], the pEC50 is 6.30 to 7.00 in assay [1] and 7.00 to 8.00 at FSHR.

Take `COc1cc2c(cc1-c1cc(C(N)=O)ncc1F)-c1c(c(C(=O)N3CCOCC3(C)C)nn1-c1cc(F)cc(F)c1)CO2` [Compound 72, 4-(1-(3,5-difluorophenyl)-3-(3,3-dimethylmorpholine-4-carbonyl)-7-methoxy-1,4-dihydrochromeno[4,3-c]pyrazol-8-yl)-5-fluoropicolinamide]: the pEC50 in assay [1] is 7.00 to 8.00; at FSHR, above 8.00.

For `COc1cc2c(cc1-c1cncc(C#N)c1)-c1c(c(C(=O)N(C)C(C)(C)C)nn1-c1cc(Cl)cc(Cl)c1)CO2` [Compound 8, N-tert-butyl-8-(5-cyanopyridin-3-yl)-1-(3,5-dichlorophenyl)-7-methoxy-N-methyl-1,4-dihydrochromeno[4,3-c]pyrazole-3-carboxamide], the negative-log EC50 (pEC50) in assay [1] was 6.30 to 7.00; on FSHR it was above 8.00.

`COc1cc2c(cc1OC(C)CO)-c1c(c(C(=O)N(C)C(C)(C)C)nn1-c1ccsc1)CO2` (stereo not shown) [Compound 193, N-tert-butyl-8-(1-hydroxypropan-2-yloxy)-7-methoxy-N-methyl-1-(thiophen-3-yl)-1,4-dihydrochromeno[4,3-c]pyrazole-3-carboxamide]: the figures for the pEC50 (in assay [1]; at FSHR) were 6.30 to 7.00 and 7.00 to 8.00, respectively.

As to `COc1cc2c(cc1-c1ccccn1)-c1c(c(C(=O)N3CCC(O)CC3(C)C)nn1-c1cc(Cl)cc(Cl)c1)CO2` (stereo not shown) [Compound 102, (1-(3,5-dichlorophenyl)-7-methoxy-8-(pyridin-2-yl)-1,4-dihydrochromeno[4,3-c]pyrazol-3-yl)(4-hydroxy-2,2-dimethylpiperidin-1-yl)methanone], the negative logarithm of the EC50 (pEC50) in assay [1] was 7.00 to 8.00; at FSHR, above 8.00.

Turning to `COc1cc2c(cc1-c1cncc(C#N)c1)-c1c(c(C(=O)N(C)C(C)(C)C#N)nn1-c1cc(F)cc(F)c1)CO2` [Compound 105, N-(2-cyanopropan-2-yl)-8-(5-cyanopyridin-3-yl)-1-(3,5-difluorophenyl)-7-methoxy-N-methyl-1,4-dihydrochromeno[4,3-c]pyrazole-3-carboxamide], the pEC50 in assay [1] is 7.00 to 8.00; on FSHR, above 8.00.

On to `COc1cc2c(cc1-c1cc(CO)ncc1F)-c1c(c(C(=O)N(C)C(C)(C)C)nn1-c1cc(F)cc(F)c1)CO2` [Compound 75, N-tert-butyl-1-(3,5-difluorophenyl)-8-(5-fluoro-2-(hydroxymethyl)pyridin-4-yl)-7-methoxy-N-methyl-1,4-dihydrochromeno[4,3-c]pyrazole-3-carboxamide], for which the negative-log EC50 (pEC50) (in assay [1]; on FSHR) was 7.00 to 8.00 in each case.

With `COc1cc(OC)cc(-n2nc(C(=O)N3CCOCC3(C)C)c3c2-c2cc(-c4cccnc4F)c(OC)cc2OC3)c1` [Compound 42, (1-(3,5-dimethoxyphenyl)-8-(2-fluoropyridin-3-yl)-7-methoxy-1,4-dihydrochromeno[4,3-c]pyrazol-3-yl)(3,3-dimethylmorpholino)methanone], the negative-log EC50 (pEC50) was 7.00 to 8.00 in assay [1] and above 8.00 at FSHR.

For the compound `COc1cc(OC)cc(-n2nc(C(=O)N(C)C(C)(C)C)c3c2-c2cc(-c4ccn(C)n4)c(OC)cc2OC3)c1` [Compound 37, N-tert-butyl-1-(3,5-dimethoxyphenyl)-7-methoxy-N-methyl-8-(1-methyl-1H-pyrazol-3-yl)-1,4-dihydrochromeno[4,3-c]pyrazole-3-carboxamide], the pEC50 is below 6.30 in assay [1] and 7.00 to 8.00 on FSHR.

For the compound `COc1cc2c(cc1-c1cccnc1F)-c1c(c(C(=O)N3CC[S+]([O-])CC3(C)C)nn1-c1cc(Cl)cc(Cl)c1)CO2` (stereo not shown) [Compound 6, (1-(3,5-dichlorophenyl)-8-(2-fluoropyridin-3-yl)-7-methoxy-1H,4H-chromeno[4,3-c]pyrazol-3-yl)(S-oxo-3,3-dimethylthiomorpholino)methanone], the values for the negative-log EC50 (pEC50) (in assay [1]; on FSHR) were 6.30 to 7.00 and above 8.00, respectively.

For `COc1cc2c(cc1-c1cc(=O)[nH]n1C)-c1c(c(C(=O)N(C)C(C)(C)C)nn1-c1ccsc1)CO2` [Compound 187], the pEC50 in assay [1] is 6.30 to 7.00; on FSHR, above 8.00.

For the compound `COc1cc(F)cc(-n2nc(C(=O)N(C)C(C)(C)C)c3c2-c2cc(-c4cncc(C#N)c4)c(OC)cc2OC3)c1` [Compound 54, N-tert-butyl-8-(5-cyanopyridin-3-yl)-1-(3-fluoro-5-methoxyphenyl)-7-methoxy-N-methyl-1,4-dihydrochromeno[4,3-c]pyrazole-3-carboxamide], the pEC50 in assay [1] is 7.00 to 8.00; at FSHR, above 8.00.

As to `COC(=O)[C@H]1C[C@@H]1c1cc2c(cc1OC)OCc1c(C(=O)N(C)C(C)(C)C)nn(-c3cc(F)cc(F)c3)c1-2` (racemic) [Compound 206], the pEC50 in assay [1] is 6.30 to 7.00; on FSHR it was above 8.00.
